Source: ChEMBL document CHEMBL3885881, “DrugMatrix”

Organism: Rattus norvegicus
Experiment: DrugMatrix - Regimen: Daily Repeat
Type: toxicity, organism-based, Sprague-Dawley
Design: regimen Daily Repeat, gender Male, age 6-8 weeks
Settings: in vivo, po, route oral GAVAGE, vehicle 100 % WATER; for ABSOLUTE BASOPHIL / ABSOLUTE EOSINOPHIL / ABSOLUTE LYMPHOCYTE / ABSOLUTE MONOCYTE / ABSOLUTE SEGMENTED NEUTROPHIL / BASOPHIL / EOSINOPHIL / ERYTHROCYTE COUNT / HEMATOCRIT / HEMOGLOBIN / LEUKOCYTE COUNT / LYMPHOCYTE / MEAN CORPUSCULAR HEMOGLOBIN / MEAN CORPUSCULAR HEMOGLOBIN CONCENTRATION / MEAN CORPUSCULAR VOLUME / MONOCYTE / NEUTROPHIL / NUCLEATED RED BLOOD CELLS / PLATELET COUNT: tissue Blood; for ALANINE AMINOTRANSFERASE / ALBUMIN / ALKALINE PHOSPHATASE / ASPARTATE AMINOTRANSFERASE / BLOOD UREA NITROGEN / CARBON DIOXIDE / CHLORIDE / CHOLESTEROL / CREATINE PHOSPHOKINASE / CREATININE / GLUCOSE / LACTATE DEHYDROGENASE / LIPASE / PHOSPHORUS / POTASSIUM / SODIUM / TOTAL BILIRUBIN / TOTAL PROTEIN / URIC ACID: tissue Plasma
[1] = 0 mg/kg, 72 h, dose level Control, time 3 day
[2] = 0 mg/kg, 120 h, dose level Control, time 5 day
[3] = 45 mg/kg, 72 h, dose level Low, time 3 day
[4] = 45 mg/kg, 120 h, dose level Low, time 5 day

## CCOC(N)=O
[1]
  ABSOLUTE BASOPHIL: 0 CELLS/uL
  ABSOLUTE EOSINOPHIL: 123.17 CELLS/uL
  ABSOLUTE LYMPHOCYTE: 12677.83 CELLS/uL
  ABSOLUTE MONOCYTE: 66.17 CELLS/uL
  ABSOLUTE SEGMENTED NEUTROPHIL: 1149.5 CELLS/uL
  BASOPHIL: 0%
  EOSINOPHIL: 0.83%
  ERYTHROCYTE COUNT: 5.26 x10E6/uL
  HEMATOCRIT: 33.07%
  HEMOGLOBIN: 13.43 G/DL
  LEUKOCYTE COUNT: 14.02 x10E3/uL
  LYMPHOCYTE: 90.17%
  MEAN CORPUSCULAR HEMOGLOBIN: 25.62 pg
  MEAN CORPUSCULAR HEMOGLOBIN CONCENTRATION: 40.65 G/DL
  MEAN CORPUSCULAR VOLUME: 63 fL
  MONOCYTE: 0.5%
  NEUTROPHIL: 8.5%
  NUCLEATED RED BLOOD CELLS: 0.17 /100WBC
  PLATELET COUNT: 1142.83 x10E3/uL
  ALANINE AMINOTRANSFERASE: 45.17 u/L
  ALBUMIN: 3.78 G/DL
  ALKALINE PHOSPHATASE: 340.17 u/L
  ASPARTATE AMINOTRANSFERASE: 77.33 u/L
  BLOOD UREA NITROGEN: 14.67 mg/dL
  CARBON DIOXIDE: 28.67 mmol/L
  CHLORIDE: 101.17 MEQ/L
  CHOLESTEROL: 77.67 mg/dL
  CREATINE PHOSPHOKINASE: 263.67 u/L
  CREATININE: 0.15 mg/dL
  GLUCOSE: 169.33 mg/dL
  LACTATE DEHYDROGENASE: 230 u/L
  LIPASE: 9.67 u/L
  PHOSPHORUS: 11.8 mg/dL
  POTASSIUM: 5.91 MEQ/L
  SODIUM: 142.88 MEQ/L
  TOTAL BILIRUBIN: 0.22 mg/dL
  TOTAL PROTEIN: 5.7 G/DL
  URIC ACID: 1.35 mg/dL
[2]
  ABSOLUTE BASOPHIL: 0 CELLS/uL
  ABSOLUTE EOSINOPHIL: 125 CELLS/uL
  ABSOLUTE LYMPHOCYTE: 13809 CELLS/uL
  ABSOLUTE MONOCYTE: 351 CELLS/uL
  ABSOLUTE SEGMENTED NEUTROPHIL: 1581.67 CELLS/uL
  BASOPHIL: 0%
  EOSINOPHIL: 0.67%
  ERYTHROCYTE COUNT: 5.53 x10E6/uL
  HEMATOCRIT: 34.83%
  HEMOGLOBIN: 13.9 G/DL
  LEUKOCYTE COUNT: 15.87 x10E3/uL
  LYMPHOCYTE: 87.5%
  MEAN CORPUSCULAR HEMOGLOBIN: 25.25 pg
  MEAN CORPUSCULAR HEMOGLOBIN CONCENTRATION: 40.08 G/DL
  MEAN CORPUSCULAR VOLUME: 63.05 fL
  MONOCYTE: 2.17%
  NEUTROPHIL: 9.67%
  NUCLEATED RED BLOOD CELLS: 0 /100WBC
  PLATELET COUNT: 1044 x10E3/uL
  ALANINE AMINOTRANSFERASE: 50.67 u/L
  ALBUMIN: 4.33 G/DL
  ALKALINE PHOSPHATASE: 395 u/L
  ASPARTATE AMINOTRANSFERASE: 86 u/L
  BLOOD UREA NITROGEN: 15.33 mg/dL
  CARBON DIOXIDE: 29.33 mmol/L
  CHLORIDE: 101.5 MEQ/L
  CHOLESTEROL: 71.33 mg/dL
  CREATINE PHOSPHOKINASE: 323.17 u/L
  CREATININE: 0.18 mg/dL
  GLUCOSE: 145.67 mg/dL
  LACTATE DEHYDROGENASE: 389.5 u/L
  LIPASE: 9.83 u/L
  PHOSPHORUS: 11.35 mg/dL
  POTASSIUM: 6.39 MEQ/L
  SODIUM: 142.77 MEQ/L
  TOTAL BILIRUBIN: 0.18 mg/dL
  TOTAL PROTEIN: 6.1 G/DL
  URIC ACID: 1.52 mg/dL
[3]
  ABSOLUTE BASOPHIL: 0 CELLS/uL
  ABSOLUTE EOSINOPHIL: 0 CELLS/uL
  ABSOLUTE LYMPHOCYTE: 12480 CELLS/uL
  ABSOLUTE MONOCYTE: 82.67 CELLS/uL
  ABSOLUTE SEGMENTED NEUTROPHIL: 1104 CELLS/uL
  BASOPHIL: 0%
  EOSINOPHIL: 0%
  ERYTHROCYTE COUNT: 5.25 x10E6/uL
  HEMATOCRIT: 34.27%
  HEMOGLOBIN: 13.87 G/DL
  LEUKOCYTE COUNT: 13.67 x10E3/uL
  LYMPHOCYTE: 91.33%
  MEAN CORPUSCULAR HEMOGLOBIN: 26.43 pg
  MEAN CORPUSCULAR HEMOGLOBIN CONCENTRATION: 40.47 G/DL
  MEAN CORPUSCULAR VOLUME: 65.23 fL
  MONOCYTE: 0.67%
  NEUTROPHIL: 8%
  NUCLEATED RED BLOOD CELLS: 0.33 /100WBC
  PLATELET COUNT: 1224 x10E3/uL
  ALANINE AMINOTRANSFERASE: 48.67 u/L
  ALBUMIN: 3.73 G/DL
  ALKALINE PHOSPHATASE: 327 u/L
  ASPARTATE AMINOTRANSFERASE: 72 u/L
  BLOOD UREA NITROGEN: 14 mg/dL
  CARBON DIOXIDE: 31.33 mmol/L
  CHLORIDE: 100.67 MEQ/L
  CHOLESTEROL: 75.67 mg/dL
  CREATINE PHOSPHOKINASE: 181.67 u/L
  CREATININE: 0.14 mg/dL
  GLUCOSE: 154 mg/dL
  LACTATE DEHYDROGENASE: 151.67 u/L
  LIPASE: 10 u/L
  PHOSPHORUS: 12.13 mg/dL
  POTASSIUM: 7.17 MEQ/L
  SODIUM: 142.87 MEQ/L
  TOTAL BILIRUBIN: 0.17 mg/dL
  TOTAL PROTEIN: 5.53 G/DL
  URIC ACID: 1.63 mg/dL
[4]
  ABSOLUTE BASOPHIL: 0 CELLS/uL
  ABSOLUTE EOSINOPHIL: 0 CELLS/uL
  ABSOLUTE LYMPHOCYTE: 10640.67 CELLS/uL
  ABSOLUTE MONOCYTE: 292.67 CELLS/uL
  ABSOLUTE SEGMENTED NEUTROPHIL: 1133.33 CELLS/uL
  BASOPHIL: 0%
  EOSINOPHIL: 0%
  ERYTHROCYTE COUNT: 5.57 x10E6/uL
  HEMATOCRIT: 35.5%
  HEMOGLOBIN: 14.37 G/DL
  LEUKOCYTE COUNT: 12.07 x10E3/uL
  LYMPHOCYTE: 88.67%
  MEAN CORPUSCULAR HEMOGLOBIN: 25.77 pg
  MEAN CORPUSCULAR HEMOGLOBIN CONCENTRATION: 40.47 G/DL
  MEAN CORPUSCULAR VOLUME: 63.8 fL
  MONOCYTE: 2.33%
  NEUTROPHIL: 9%
  NUCLEATED RED BLOOD CELLS: 0 /100WBC
  PLATELET COUNT: 1349.67 x10E3/uL
  ALANINE AMINOTRANSFERASE: 45 u/L
  ALBUMIN: 4.53 G/DL
  ALKALINE PHOSPHATASE: 393.33 u/L
  ASPARTATE AMINOTRANSFERASE: 72 u/L
  BLOOD UREA NITROGEN: 14.67 mg/dL
  CARBON DIOXIDE: 33 mmol/L
  CHLORIDE: 101 MEQ/L
  CHOLESTEROL: 75 mg/dL
  CREATINE PHOSPHOKINASE: 138.67 u/L
  CREATININE: 0.19 mg/dL
  GLUCOSE: 156.33 mg/dL
  LACTATE DEHYDROGENASE: 85.67 u/L
  LIPASE: 10 u/L
  PHOSPHORUS: 11.27 mg/dL
  POTASSIUM: 6.72 MEQ/L
  SODIUM: 144.8 MEQ/L
  TOTAL BILIRUBIN: 0.23 mg/dL
  TOTAL PROTEIN: 6.3 G/DL
  URIC ACID: 1.6 mg/dL
